Reference: article PMC4315410, “A New PAMPA Model Proposed on the Basis of a Synthetic Phospholipid Membrane” (PLoS ONE, 2015)
Structures can show the parent of a compound that is named as a salt.

How the values were obtained:
[1] = design: method as in Chinese Pharmacopoeia, 2005 edition and references 15, 27, 38; details: ref Chinese Pharmacopoeia, 2005 edition and references 15, 27, 38; cited from earlier work
[2] = PAMPA with synthetic phospholipid membrane, octyl chain (C8); assay type: in vitro ADME; details: for Papp at 16 h: PAMPA, read-out: P e
Method: (§1) In PAMPA, a “sandwich” structure was formed by a 96-well microtiter plate and a 96-well filter plate from Millipore (IPVH, 125 μm thick filter, 0.45 μm pore), then wetted with a 4 μl 2% w/v phospholipid compound solution in n-dodecane [27].
(§2) The stock solutions of the drug samples were prepared at 10 mM concentrations in DMSO and stored at 0°C before use. Before being added to a 96-well filter plate, the stock solution was diluted first with buffer to achieve a final sample concentration of 10∼50 μM and to reduce the DMSO concentration below 1% (v/v).
(§3) The PAMPA plate was filled with a 300 μl diluted drug solution to prepare the “donor” wells, and the 96-well filter plate containing a synthetic phospholipid membrane was then placed on the donor wells. The “acceptor” wells were filled with 200 μl of buffer solution and placed on top of the “sandwich”, and the PAMPA instruments were incubated at 25°C in a sealed and saturated humidity container for a specified time. After reaching the permeation time, the PAMPA plate sandwich was separated, and the amount of drugs in both the donor and acceptor compartments were measured by comparing the experimental spectra with the UV spectrum (220∼400 nm) obtained from reference standards.
(§4) The factor S was the fraction of samples remaining in the donor and the acceptor wells at time t.
(§5) In the incubation time assays, the pH was 7.4 in both the donor and acceptor wells. In the pH-gradient assays, the pH of the drug solutions was varied using NaOH-treated universal buffer (pION Inc.) in the donor wells, and the pH in the acceptor solution was pH 7.4 [15]. In addition, the incubation time in the pH-gradient test assays was 16 h.

[3] = PAMPA with synthetic phospholipid membrane, decyl chain (C10); assay type: in vitro ADME; details: for Papp at 16 h: PAMPA, read-out: P e
Method: as §1, §2, §3, §4, §5

[4] = PAMPA with synthetic phospholipid membrane, lauryl chain (C12); assay type: in vitro ADME; details: for Papp at 16 h: PAMPA, read-out: P e
Method: as §1, §2, §3, §4, §5

[5] = design: method as in DrugBank database; details: ref DrugBank database; cited from earlier work
[6] = design: method as in PMID 11576780, PMID 9691477; details: cited from earlier work
[7] = C8, donor pH 4.98, acceptor pH 7.4, 16 h
[8] = C8, donor pH 4.6, acceptor pH 7.4, 16 h
[9] = C8, donor pH 6.57, acceptor pH 7.4, 16 h
[10] = C8, donor pH 8.2, acceptor pH 7.4, 16 h
[11] = C8, donor pH 9.32, acceptor pH 7.4, 16 h
[12] = pH 7.4, C8 membrane, incubation time 16 h, pH 7.4 donor and acceptor, 25°C
[13] = C10, donor pH 9.32, acceptor pH 7.4, 16 h
[14] = C10, donor pH 4.6, acceptor pH 7.4, 16 h
[15] = C10, donor pH 4.98, acceptor pH 7.4, 16 h
[16] = C10, donor pH 6.57, acceptor pH 7.4, 16 h
[17] = C10, donor pH 8.2, acceptor pH 7.4, 16 h
[18] = pH 7.4, C10 membrane, incubation time 16 h, pH 7.4 donor and acceptor, 25°C
[19] = C12, donor pH 4.98, acceptor pH 7.4, 16 h
[20] = C12, donor pH 8.2, acceptor pH 7.4, 16 h
[21] = C12, donor pH 9.32, acceptor pH 7.4, 16 h
[22] = C12, donor pH 4.6, acceptor pH 7.4, 16 h
[23] = C12, donor pH 6.57, acceptor pH 7.4, 16 h
[24] = pH 7.4, C12 membrane, incubation time 16 h, pH 7.4 donor and acceptor, 25°C

| Structure (SMILES) | pKa (first value listed) [1] | P e [2, 7] | Papp at 16 h [2, 8] [×10⁻⁶ cm/s] | Papp at 16 h [2, 9] [×10⁻⁶ cm/s] | Papp at 16 h [2, 12] [×10⁻⁶ cm/s] | P e [3, 13] | Papp at 16 h [3, 18] [×10⁻⁶ cm/s] | P e [4, 19] | P e [4, 20] | P e [4, 21] | Papp at 16 h [4, 24] [×10⁻⁶ cm/s] | Water solubility [5] [mg] | P e [2, 10] | P e [3, 14] | P e [3, 17] | P e [4, 23] | P e [2, 9] | P e [3, 15] | P e [3, 16] | P e [4, 22] | further results |
| --- | --- | --- | --- | --- | --- | --- | --- | --- | --- | --- | --- | --- | --- | --- | --- | --- | --- | --- | --- | --- | --- |
| O=C(N[C@H](CO)[C@H](O)c1ccc([N+](=O)[O-])cc1)C(Cl)Cl [Chloroamphenicol] | 4.3 | 4.2 ×10^–6 cm/s | 4.3 | 1.7 | 8.8 ± 0.2 | 0.5 ×10^–6 cm/s | 9.8 ± 0.3 | 4.2 ×10^–6 cm/s | 0.7 ×10^–6 cm/s | 0.5 ×10^–6 cm/s | 14.6 ± 0.3 | – | – | – | – | – | – | – | – | – | Papp at 16 h [2, 10]: 0.6 ×10⁻⁶ cm/s; Papp at 16 h [2, 11]: 0.5 ×10⁻⁶ cm/s; Papp at 16 h [3, 14]: 4.2 ×10⁻⁶ cm/s; Papp at 16 h [3, 15]: 4 ×10⁻⁶ cm/s; Papp at 16 h [3, 16]: 1 ×10⁻⁶ cm/s; Papp at 16 h [3, 17]: 0.7 ×10⁻⁶ cm/s; Papp at 16 h [4, 22]: 4.4 ×10⁻⁶ cm/s; Papp at 16 h [4, 23]: 1.5 ×10⁻⁶ cm/s |
| CCn1cc(C(=O)O)c(=O)c2cc(F)c(N3CCNCC3)cc21 [Norfloxacin] | 6.26 | – | 1.9 | 2.6 | 0.9 ± 0.1 | 2.3 ×10^–6 cm/s | 1 ± 0.1 | 2.2 ×10^–6 cm/s | 2.6 ×10^–6 cm/s | 2.2 ×10^–6 cm/s | – | 178000 | 2.5 ×10^–6 cm/s | 1.9 ×10^–6 cm/s | 2.5 ×10^–6 cm/s | 2.6 ×10^–6 cm/s | – | – | – | – | P e [2, 11]: 2.2 ×10^–6 cm/s; Papp at 16 h [2, 7]: 2.3 ×10⁻⁶ cm/s; Papp at 16 h [3, 15]: 2.2 ×10⁻⁶ cm/s; Papp at 16 h [3, 16]: 2.5 ×10⁻⁶ cm/s; P e ([4]; C12 membrane, incubation time 16 h, pH 7.4 donor and acceptor, 25°C): 1.0±0.1 10^−6 cm/s; Papp at 16 h [4, 22]: 1.8 ×10⁻⁶ cm/s |
| CN(C)C(=N)N=C(N)N [Metformin Hydrochloride] | – | 1.6 ×10^–7 cm/s | – | – | 2.4 ± 0.4 | 7.2 ×10^–7 cm/s | 2.9 ± 0.3 | 1.7 ×10^–7 cm/s | 4.9 ×10^–7 cm/s | 7.3 ×10^–7 cm/s | 3.4 ± 0.2 | – | 4.9 ×10^–7 cm/s | 1.5 ×10^–7 cm/s | 5.8 ×10^–7 cm/s | 3.1 ×10^–7 cm/s | 3.2 ×10^–7 cm/s | 1.6 ×10^–7 cm/s | 3.2 ×10^–7 cm/s | 1.6 ×10^–7 cm/s | P e [2, 8]: 1.5 ×10^–7 cm/s; P e [2, 11]: 7.4 ×10^–7 cm/s |
| CN/C(=N/CCSCc1nc[nH]c1C)NC#N [Cimetidine] | 7.23 | – | 1.8 | – | 2.6 ± 0.4 | – | 2.8 ± 0.3 | 1.9 ×10^–6 cm/s | 3.2 ×10^–6 cm/s | 3.4 ×10^–6 cm/s | 3.2 ± 0.3 | 9380 | 3.2 ×10^–6 cm/s | 1.8 ×10^–6 cm/s | – | – | 2.6 ×10^–6 cm/s | – | 2.6 ×10^–6 cm/s | 1.8 ×10^–6 cm/s | Papp at 16 h [2, 7]: 1.6 ×10⁻⁶ cm/s; Papp at 16 h [2, 11]: 3.7 ×10⁻⁶ cm/s; Papp at 16 h [3, 15]: 1.9 ×10⁻⁶ cm/s; Papp at 16 h [3, 17]: 3.1 ×10⁻⁶ cm/s; Papp at 16 h [3, 13]: 3.4 ×10⁻⁶ cm/s; %FA (human fraction absorbed) [6]: 85%; Papp at 16 h [4, 23]: 2.7 ×10⁻⁶ cm/s |
| CNC(=C[N+](=O)[O-])NCCSCc1ccc(CN(C)C)o1 [Ranitidine] | – | 1.8 ×10^–7 cm/s | – | – | 1.2 ± 0.1 | 5.5 ×10^–7 cm/s | 1.4 ± 0.1 | 1.8 ×10^–7 cm/s | 4.9 ×10^–7 cm/s | 5.4 ×10^–7 cm/s | 1.5 ± 0.1 | 24.7 | 4.9 ×10^–7 cm/s | 1.6 ×10^–7 cm/s | 5.8 ×10^–7 cm/s | 3.2 ×10^–7 cm/s | 3.2 ×10^–7 cm/s | 1.8 ×10^–7 cm/s | 3.1 ×10^–7 cm/s | 1.6 ×10^–7 cm/s | P e [2, 8]: 1.6 ×10^–7 cm/s; %FA (human fraction absorbed) [6]: 55% |
| COCCc1ccc(OCC(O)CNC(C)C)cc1 (stereo not drawn) [Metoprolol Tartrate] | – | 2.7 ×10^–5 cm/s | – | – | 9.2 ± 0.6 | 9.3 ×10^–5 cm/s | 10.3 ± 0.5 | 2.6 ×10^–5 cm/s | 8.0 ×10^–5 cm/s | 9.1 ×10^–5 cm/s | 11.7 ± 0.5 | 16900 | 8.0 ×10^–5 cm/s | 1.4 ×10^–5 cm/s | 7.5 ×10^–5 cm/s | 5.0 ×10^–5 cm/s | 5.1 ×10^–5 cm/s | 2.5 ×10^–5 cm/s | 5.3 ×10^–5 cm/s | 1.6 ×10^–5 cm/s | P e [2, 11]: 8.9 ×10^–5 cm/s |
| CC1(C)S[C@@H]2[C@H](NC(=O)[C@H](N)c3ccc(O)cc3)C(=O)N2[C@H]1C(=O)O [Amoxicillin] | – | 2.1 ×10^–7 cm/s | – | – | 4.6 ± 0.4 | 2.2 ×10^–7 cm/s | 5.3 ± 0.3 | 2.1 ×10^–7 cm/s | 2.3 ×10^–7 cm/s | 2.0 ×10^–7 cm/s | 5.7 ± 0.4 | – | 2.4 ×10^–7 cm/s | 1.9 ×10^–7 cm/s | 2.3 ×10^–7 cm/s | 2.6 ×10^–7 cm/s | 2.6 ×10^–7 cm/s | 2.1 ×10^–7 cm/s | 2.5 ×10^–7 cm/s | 1.9 ×10^–7 cm/s | pKa (second value listed) [1]: 7.31; pKa (third value listed) [1]: 9.53; P e [2, 8]: 1.9 ×10^–7 cm/s; P e [2, 11]: 2.2 ×10^–7 cm/s; %FA (human fraction absorbed) [6]: 93% |
| NC(N)=Nc1nc(CSCCC(N)=NS(N)(=O)=O)cs1 [Famotidine] | 7.24 | – | 1.1 | 5 | 2.7 ± 0.3 | – | 2.8 ± 0.2 | 1.2 ×10^–6 cm/s | – | – | 3.2 ± 0.4 | 1000 | – | – | – | – | – | 2.2 ×10^–6 cm/s | – | 1.2 ×10^–6 cm/s | pKa (second value listed) [1]: 11.19; Papp at 16 h [2, 7]: 2.2 ×10⁻⁶ cm/s; Papp at 16 h [2, 11]: 5.1 ×10⁻⁶ cm/s; Papp at 16 h [3, 14]: 1.2 ×10⁻⁶ cm/s; Papp at 16 h [3, 16]: 5.7 ×10⁻⁶ cm/s; Papp at 16 h [3, 13]: 5.5 ×10⁻⁶ cm/s; %FA (human fraction absorbed) [6]: 40%; Papp at 16 h [4, 23]: 6 ×10⁻⁶ cm/s; Papp at 16 h [4, 21]: 6.1 ×10⁻⁶ cm/s |
| CC(C)Cc1ccc(C(C)C(=O)O)cc1 (stereo not drawn) [Ibuprofen] | – | – | 23 | 8.5 | 13.9 ± 0.5 | 2.6 ×10^–6 cm/s | 14.5 ± 0.5 | 23.0 ×10^–6 cm/s | 1.5 ×10^–6 cm/s | 2.6 ×10^–6 cm/s | 16.7 ± 0.4 | 21 | – | 23.0 ×10^–6 cm/s | – | – | – | – | – | – | Papp at 16 h [2, 7]: 23.5 ×10⁻⁶ cm/s; Papp at 16 h [2, 10]: 3 ×10⁻⁶ cm/s; Papp at 16 h [2, 11]: 2.6 ×10⁻⁶ cm/s; Papp at 16 h [3, 15]: 22 ×10⁻⁶ cm/s; Papp at 16 h [3, 16]: 7 ×10⁻⁶ cm/s; Papp at 16 h [3, 17]: 1.5 ×10⁻⁶ cm/s; Papp at 16 h [4, 22]: 22.5 ×10⁻⁶ cm/s; Papp at 16 h [4, 23]: 7.5 ×10⁻⁶ cm/s |
